Results from patent US20250204515A1, “Heparanase Inhibition for Graft Protection” (University of Pittsburgh - Of the Commonwealth System of …, priority 2022, published 2025).
“Also recorded” adds a separate entry of the source.

Legend:
MMP-2 = assay: Gelatin zymography of EVLP perfusate, donor-pretreated lungs; format: in vivo, rat; settings: donor pre-treatment, vs control
Description: Gelatin zymography. Gelatin zymography was performed to measure secreted MMP-2 and MMP-9 activity in EVLP perfusate and to measure endogenous MMP-2 and 9 activity in lung tissue before transplantation. Briefly, lung tissue before transplant was homogenized in cold PBS. Perfusate samples (20 μl) or tissue lysates were mixed with 2× non-reducing SDS sample buffer were loaded onto a 10% polyacrylamide gel containing 0.1% SDS and 0.1% gelatin. After electrophoresis to separate the proteins, the gel was washed in renaturing buffer (Novex Invitrogen) at room temperature, and then incubated in developing buffer (Novex Invitrogen) at 37° C. overnight (˜16-18 h). The next day, the gel was stained with Coomassie Brilliant Blue R-250 (Bio-Rad) and imaged (ChemiDoc, Bio-Rad). Enzyme activity, visualized as clear bands against the dark blue background, was quantified using Image-J (NIH).

[1] = system: syndecan-1, glycosaminoglycans (GAGs); assay: Glycocalyx components in lung grafts 2 h after transplantation (western blot, DMMB); format: in vivo, rat; settings: vs control; for GAGs remaining in the lung tissue: DMMB assay, 2 h after transplant; for syndecan-1 protein expression in the plasma membrane: western blot, 2 h after transplantation
Description: Western blotting. Whole cell lysate was isolated with 2% SDS buffer (2% SDS, 50 mM Tris-HCl pH 6.8, 10% glycerol) supplemented with protease inhibitors (Sigma-Aldrich). Membrane protein fractions were obtained with the Mem-PER Plus Membrane Protein Extraction Kit (Thermo Scientific) following manufacturer's instructions. Proteins were resolved on 10% SDS-PAGE followed by transfer to 0.2 μm nitrocellulose membranes (Bio-Rad Laboratories, Hercules, CA, USA). Membranes were blocked with 5% non-fat milk at room temperature for 2 h and then incubated with the following primary antibodies at 4° C. overnight: anti-syndecan-1 (1:1000; Santa Cruz Biotechnology, Inc., Dallas, Tx, USA), anti-heparanase-1 (1:1000; Boster Biological, Pleasanton, CA, USA), anti-VE-Cadherin (1:1000; Abcam), anti-HSP90 (1:1000; Abcam) and anti-@-actin (1:50,000; Sigma-Aldrich). Membranes were then incubated with either anti-mouse (1:5000) or anti-rabbit (1:3000) horse-radish peroxidase (HRP)-conjugated polyclonal secondary antibody (Abcam, Cambridge, MA, USA), or IRDye 800CW anti-rabbit IgG or 680CW anti-mice secondary antibody (LI-COR Biosciences, Lincoln, NE, USA) at room temperature for 2 h. Proteins were visualized using an enhanced chemiluminescence kit (Abcam), and protein bands were imaged and analyzed using Image Lab software (Version 6.0; Bio-Rad Laboratories, Inc.) or Odyssey 9120 Infrared Imaging System (LI-COR Biosciences).
Determination of glycocalyx components in rat lung grafts. For rat lung tissue, syndecan-1 released into the perfusate during EVLP was measured with a rat-specific ELISA (Immunotag Rat SDC1 (Syndecan-1) ELISA, G-Biosciences, St. Louis, MO). Glycocalyx glycosaminoglycans (GAGs) were quantitated using the 1,9-dimethylmethylene blue (DMMB, Millipore Sigma) method with modifications. A 1 L solution of DMMB (pH˜3.0) was prepared by dissolving 16 mg DMMB in distilled H2O containing 3.04 g/A glycine, 1.6 g/A NaCl and 95 ml 0.1 M acetic acid. Briefly, 1 ml DMMB solution was added to 20 μl lung tissue lysate then incubated at room temperature for 1 h on a tube rotator. The tubes were then centrifuged at 14,000 rpm for 15 min at 4° C. Supernatants were carefully decanted, 200 μL sodium lauryl sulfate buffer (2.08 mM) was added to each pellet, and the tubes were vortexed until GAG-DMMB pellets were no longer visible. GAG content in each sample was measured spectrophotometrically at 656 nm.

IL-6, IL-1β, MMP-9 mRNA = assay: Real-time RT-PCR in lung grafts 2 h after transplantation; format: in vivo, rat; settings: for IL-1β mRNA expression / IL-6 mRNA expression: graft 2 h after reperfusion, vs control lung grafts; for MMP-9 mRNA expression: graft 2 h after transplantation, vs control
Description: Real-time RT PCR. Lung tissues were collected after EVLP or 2 h after transplantation. Total RNA was extracted from the graft using TRIzol reagent (Life Technologies, Inc. Grand Island, NY) according to the manufacturer's instructions and purified by ethanol precipitation. RNA content was measured using 260/280 nm UV spectrophotometry.

heparanase = molecular target: T1, heparanase (Rattus norvegicus, UniProt Q71RP1); assay: Heparanase activity assay in rat lung tissue after 1 h warm ischemia; format: in vivo; settings: rat donors given heparin 300 IU or NAH 300 μg i.v. 5 min before 1 h warm ischemia; vs untreated control
T1 construct: isolated lung tissue lysate was applied to biotinylated heparan sulfate-coated wells; from tissue; host or cells: rat (Lewis) lung tissue lysate
T1 sequence (Q71RP1 29-536): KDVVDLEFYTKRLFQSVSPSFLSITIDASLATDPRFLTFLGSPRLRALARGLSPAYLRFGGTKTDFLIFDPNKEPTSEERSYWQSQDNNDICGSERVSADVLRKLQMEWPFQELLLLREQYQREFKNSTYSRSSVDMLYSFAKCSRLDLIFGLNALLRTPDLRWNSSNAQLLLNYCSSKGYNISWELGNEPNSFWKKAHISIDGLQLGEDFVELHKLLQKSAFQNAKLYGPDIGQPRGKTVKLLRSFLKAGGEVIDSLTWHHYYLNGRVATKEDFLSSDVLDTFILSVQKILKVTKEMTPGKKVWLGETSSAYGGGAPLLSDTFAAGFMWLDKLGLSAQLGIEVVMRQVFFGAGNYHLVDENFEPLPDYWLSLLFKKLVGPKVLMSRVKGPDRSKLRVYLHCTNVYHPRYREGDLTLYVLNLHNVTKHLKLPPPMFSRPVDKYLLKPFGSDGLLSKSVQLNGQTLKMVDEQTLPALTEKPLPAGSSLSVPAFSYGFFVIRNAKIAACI
Description: Models of lungs with damaged or preserved eGC and rat orthotopic left lung transplantation. Rats were sedated with 4% isoflurane via inhalation for tracheostomy and then placed on a ventilator. They received 5% isoflurane with 100% O2 via inhalation through the ventilator for 15 min to induce a deep state of anesthesia that causes arrest of spontaneous breathing. The rats were disconnected from the ventilator 5 min after intravenous administration of heparin (300 IU), a heparin derivative without anti-coagulant properties (300 μg; N-acetyl heparin (NAH) (Millipore Sigma, Burlington, MA)), or saline (300 μl, control) through the jugular vein. Cardiac activity and blood oxygen saturation were monitored after disconnection from ventilator until cardiac arrest. One hour after induction of ischemia, a median thoracotomy was performed, and blood was flushed from the lungs with cold, low potassium dextran solution (PERFADEX; XVIVO Perfusion AB) through the pulmonary artery. […]
Heparanase activity assay. Heparanase activity was measured using a heparanase assay kit (AMS Bio-technology (Europe) Ltd., Abingdon, UK) to quantitate heparan sulfate degradation according to the manufacturer's instructions. […] After incubation and washing, the remaining heparan sulfate was detected using a biotin-streptavidin-HRP system.

heparanase activity in lung tissue (heparanase)	Substance	MMP-2 activity in EVLP perfusate (MMP-2)	GAGs remaining in the lung tissue [1]	syndecan-1 protein expression in the plasma membrane [1]	IL-1β mRNA expression (IL-6, IL-1β, MMP-9 mRNA)	IL-6 mRNA expression (IL-6, IL-1β, MMP-9 mRNA)	MMP-9 mRNA expression (IL-6, IL-1β, MMP-9 mRNA)
decreased; also recorded: inhibited	heparin	significantly less	significantly more GAGs remained	markedly higher	significantly lower	significantly lower	significantly lower
inhibited	N-acetyl heparin [NAH]	significantly less	significantly more GAGs remained	markedly higher	significantly lower	significantly lower	significantly lower
